PMC5729604, “Dual inhibitors of hepatitis C virus and hepatocellular carcinoma: design, synthesis and docking studies” (Future Science OA, 2017)
Converted amounts (≈) assume the structure as drawn.

Key:
In vitro hemolytic assay = assay type: cell-based; conditions: 2% erythrocyte suspension (washed red blood cells); 2% erythrocyte suspension, 3 μl of 1 mg/ml compound in DMF per 240 μl well, 37°C 30 min, absorbance 405 nm; <5% considered nontoxic
Description: (§1) Compounds 5a-x and 6a-h were subjected to the in vitro hemolytic assay to identify those which cause hemolysis to red blood cells (RBCs). Consequently, these compounds would be toxic in vivo so they were excluded from further biological screening.
(§2) Blood samples (5 ml) were freshly collected into heparinized tubes and were centrifuged (1000 r.p.m. for 20 min) at room temperature. The plasma and buffy coat were removed by Pasteur pipette, and the collected erythrocytes were washed three-times using isotonic buffer solution (0.9% sodium chloride [Sigma-Aldrich, MO, USA]) by centrifugation (2500 r.p.m. for 10 min). A two percent erythrocyte suspension was prepared to be used in the assay.
(§3) A 1 mg/ml stock solution of each compound was prepared in DMF (Sigma-Aldrich). Compound wells were prepared by adding 3 μl of the compound solution to 117 μl isotonic buffer solution and 120 μl erythrocyte suspension. Compounds color blank wells were prepared by adding 3 μl compound to 237 μl isotonic buffer solution. Solvent (DMF) wells were prepared by adding 3 μl DMF to 117 μl isotonic buffer solution and 120 μl erythrocyte suspension. Positive control wells (representing 100% hemolysis) were prepared by adding 120 μl erythrocyte suspension to 120 μl distilled water, while negative control wells (representing 0% hemolysis) were prepared by adding 120 μl erythrocyte suspension to 120 μl isotonic buffer solution. Finally, blank wells contained only 240 μl isotonic buffer solution. Each set of samples was pipetted in triplicate. The microtiter plate was then shaken well on bench, incubated at 37°C for 30 min then centrifuged (2000 rpm for 5 min) at room temperature.
(§4) A fraction of the supernatant layer (150 μl) of each well was transferred to another 96-well microtiter plate. Erythrocyte hemolysis was determined by reading the absorbance (A) of liberated hemoglobin at 405 nm in the supernatant fraction compared with the 100% hemolysis of erythrocyte. The average value was calculated from triplicate assay: [drawing 2]

red blood cells (RBCs) = experiment: In vitro hemolytic assay; assay type: cell-based; conditions: <5% hemolysis nontoxic, 5% or more toxic and hemolytic
Description: as §1, §2, §3, §4

[1] = Solubility in DMF or DMSO under experimental conditions; assay type: physicochemical
[2] = system: human HCC cell line HepG2; experiment: cells; assay type: cell-based; conditions: Homo sapiens, HepG2, 72 h, 72 h, neutral red; Supplementary Table 2; read-out: Anticancer (HepG2) IC50
Description: The safe compounds on RBCs (5a-g, 5i-l, 5p-r, 5v-w, 6b-g) were screened for their potential anticancer activity against human HCC cell line HepG2. HepG2 cells were exposed to the test compounds, then viability of cells was measured using neutral red uptake assay as described by Borenfreund and Puerner. This assay depends on the fact that neutral red dye can be incorporated into the lysosomes of living cells providing a quantitative assay to the cytotoxic effects. The results were interpreted to calculate both the concentration causing 50% cancer cell death (IC50) of each compound and the maximum safe concentration that cause 100% viability (LD0; to be used in the in vitro anti-HCV testing) using GraphPad InStat 3.0 software (Figure 5 & Supplementary Table 2).
HepG2 cells were routinely maintained as adherent cell cultures in RPMI-1640 medium (Lonza Group Ltd, Basel, Switzerland) supplemented with 10% fetal bovine serum (FBS; Lonza, IL, USA) at 37°C in a humidified air incubator containing 5% CO2. Cells were subcultured for 2 weeks before assay. Cell viability was assessed using trypan blue exclusion method.
HepG2 cells were washed twice in RPMI-1640 medium supplemented with 200 μM L-glutamine (Lonza) and […] 4-(2-hydroxyethyl)-1-piperazineethanesulfonic acid (HEPES) buffer (Lonza). The cells were suspended at 3 × 10^4 cells/ml in RPMI culture medium (RPMI supplemented medium and 10% FBS). The appropriate number of cells was chosen to be 3 × 10^3 cells/well (100 μl of the prepared suspension), and the cells were left to adhere on the polystyrene 96-well plates in an incubator at 37°C, 5% CO2 and 95% humidity for 24 h. The cells were washed once using RPMI supplemented medium.
A 2 mg/ml stock solution of each compound was prepared in DMF and filtered using a 0.2 μM syringe filter. The desired concentrations (20, 10, 5, 2.5 and 1.25 μg/ml) were prepared using serial dilution in a 96-well plate. Compound wells were prepared by adding 100 μl of the previously prepared concentrations to a 100 μl of HepG2 cells suspension. Parallel concentrations of the solvent were prepared to be used as controls. 5-Fluorouracil was used as a positive control. Control wells were prepared by adding 100 μl culture media to a 100 μl of HepG2 cells suspension. Blank wells contained 200 μl of culture media only (without cells or compound solution). Each set of samples was pipetted in duplicate. The plate was gently shaken, then incubated at 37°C, 5% CO2 for 72 h.
After incubation, the plate was centrifuged (2000 r.p.m. for 10 min). The media were discarded by inversion over paper towels. A working solution (100 μg/ml) of neutral red stain (Bio Basic Inc, Markham, Canada) was prepared, and 100 μl of this solution was added to each well, then the plate was gently shaken. The plate was incubated at 37°C in humidified 5% CO2 for 3 h, and then centrifuged (2000 r.p.m. for 10 min). Excess dyes were discarded, and the cells were fixed with 100 μl fixing solution (0.5% formalin with 1% calcium chloride [Sigma-Aldrich]) for 1 min. Cells were destained in 100 μl destaining solution (50% ethanol with 1% glacial acetic acid [Sigma-Aldrich]) for 5 min by shaking. The stain intensity was assayed using automated microplate reader spectrophotometer adjusted at 490 nm. Surviving cell fraction was calculated according to the following equation: [drawing 3]
The results were interpreted to calculate both the concentration causing 50% cancer cell death (IC50) of each compound and the maximum safe concentration that cause 100% viability (LD0; to be used in the in vitro anti-HCV testing) using GraphPad InStat 3.0 software.

| melting point [°C] | solubility in DMF or DMSO [1] | Structure (SMILES) | hemolysis at 30 min, 12.5 µg/ml (In vitro hemolytic assay) [%] | also measured |
| --- | --- | --- | --- | --- |
| > 300 |  | CC(=NN=C1SC(=Cc2cn(-c3ccccc3)nc2-c2ccc(Cl)cc2)C(=O)N1c1ccccc1)c1nc2ccccc2[nH]1 [Compound 5n, 2-[1-(1H-Benzimidazole-2-yl)ethylidenehydrazono]-5-{[3-(4-chlorophenyl)-1-phenyl-1H-pyrazol-4-yl]methylene}-3-phenylthiazolidin-4-one] | 9.52 |  |
|  | could not be dissolved | COc1ccc(N2C(=O)C(=Cc3cn(-c4ccccc4)nc3-c3ccccc3)SC2=NN=C(C)c2nc3ccccc3[nH]2)cc1 [Compound 5s, 2-[1-(1H-Benzimidazole-2-yl)ethylidenehydrazono]-5-[(1,3-Diphenyl-1H-pyrazol-4-yl)methylene]-3-(4-methoxyphenyl)thiazolidin-4-one] |  |  |
| > 300 |  | COc1ccc(-c2nn(-c3ccccc3)cc2C=C2SC(=NN=C(C)c3nc4ccccc4[nH]3)N(c3ccccc3)C2=O)cc1 [Compound 5o, 2-[1-(1H-Benzimidazole-2-yl)ethylidenehydrazono]-5-{[3-(4-methoxyphenyl)-1-phenyl-1H-pyrazol-4-yl]methylene}-3-phenylthiazolidin-4-one] | 15.1 |  |
| 280 to 282 | could not be dissolved | COc1ccc(N2C(=O)C(=Cc3cn(-c4ccccc4)nc3-c3ccc(Cl)cc3)SC2=NN=C(C)c2cc3ccccc3o2)cc1 [Compound 5h, 2-[1-(Benzofuran-2-yl)ethylidenehydrazono]-5-{[3-(4-chlorophenyl)-1-phenyl-1H-pyrazol-4-yl]methylene}-3-(4-methoxyphenyl)thiazolidin-4-one] |  |  |

The next lines start with the compound.

| Structure (SMILES) | melting point [°C] | solubility in DMF or DMSO [1] | hemolysis at 30 min, 12.5 µg/ml (In vitro hemolytic assay) [%] | also measured |
| --- | --- | --- | --- | --- |
| COc1ccc(-c2nn(-c3ccccc3)cc2C=C2SC(=NN=C(C)c3nc4ccccc4[nH]3)N(C3CCCCC3)C2=O)cc1 [Compound 5x, 2-[1-(1H-Benzimidazole-2-yl)ethylidenehydrazono]-5-{[3-(4-methoxyphenyl)-1-phenyl-1H-pyrazol-4-yl]methylene}-3-cyclohexylthiazolidin-4-one] | 215 to 217 |  | 8.74 | toxicity to RBCs (hemolysis), in words (red blood cells (RBCs)): cause hemolysis to RBCs |
| CC(=NN=C1SC(=C2C(=O)Nc3ccccc32)C(=O)N1C1CCCCC1)c1nc2ccccc2[nH]1 [Compound 6h, 2-[1-(1H-Benzimidazole-2-yl)ethylidenehydrazono]-5-(2-oxoindolin-3-ylidene)-3-cyclohexylthiazolidin-4-one] |  |  | 7.56 | toxicity to RBCs (hemolysis), in words (red blood cells (RBCs)): cause hemolysis to RBCs |
| COc1ccc(-c2nn(-c3ccccc3)cc2C=C2SC(=NN=C(C)c3nc4ccccc4[nH]3)N(c3ccc(OC)cc3)C2=O)cc1 [Compound 5u, 2-[1-(1H-Benzimidazole-2-yl)ethylidenehydrazono]-5-{[3-(4-methoxyphenyl)-1-phenyl-1H-pyrazol-4-yl]methylene}-3-(4-methoxyphenyl)thiazolidin-4-one] |  | could not be dissolved |  |  |
| COc1ccc(N2C(=O)C(=Cc3cn(-c4ccccc4)nc3-c3ccc(Cl)cc3)SC2=NN=C(C)c2nc3ccccc3[nH]2)cc1 [Compound 5t, 2-[1-(1H-Benzimidazole-2-yl)ethylidenehydrazono]-5-{[3-(4-chlorophenyl)-1-phenyl-1H-pyrazol-4-yl]methylene}-3-(4-methoxyphenyl)thiazolidin-4-one] |  | could not be dissolved |  |  |
| CC(=NN=C1SC(=Cc2cn(-c3ccccc3)nc2-c2ccccc2)C(=O)N1c1ccccc1)c1nc2ccccc2[nH]1 [Compound 5m, 2-[1-(1H-Benzimidazole-2-yl)ethylidenehydrazono]-5-[(1,3-Diphenyl-1H-pyrazol-4-yl)methylene]-3-phenylthiazolidin-4-one] | > 300 |  | 11.7 |  |
| O=c1[nH]cc(F)c(=O)[nH]1 [Compound 5-FU, 5-Fluorouracil, reference compound] |  |  |  | IC50 [2]: 0.9 µg/mL (≈ 6.92 µM) |
| CC(=NN=C1SC(=C2C(=O)Nc3ccccc32)C(=O)N1c1ccccc1)c1cc2ccccc2o1 [Compound 6a, 2-[1-(Benzofuran-2-yl)ethylidenehydrazono]-5-(2-oxoindolin-3-ylidene)-3-phenylthiazolidin-4-one] |  |  | 11.2 | toxicity to RBCs (hemolysis), in words (red blood cells (RBCs)): cause hemolysis to RBCs |
